Measurements as given in US8951789B2, “Mammalian artificial chromosome vector comprising human cytochrome P450 gene (cluster) and non-human mammalian animal retaining the same” (National University Corporation Tottori University, priority 2007, dated 2015).

Tests used:
[1] = system: CYP3A/Cyp3a expression; assay: Induction of CYP3A/Cyp3a expression by PCN, Western blot of liver microsome fractions
Procedure: In order to investigate the influence of pregnenolone 16α-carbonitrile (PCN) (Sigma), which is known as a substance inducing CYP3A/Cyp3a expression, on CYP3A/Cyp3a gene expression in TC(CYP3A-HACΔ)/Δcyp, Δcyp, and B6 normal mice, PCN was administered intraperitoneally for 4 days in amounts of 100 mg/kg per dose. A suspension of PCN in corn oil (Sigma) was prepared for administration.

[2] = system: CYP3A4
[3] = system: CYP3A/Cyp3a; assay: Midazolam metabolites in human liver microsomes by LC-MS/MS; conditions: 10 μM midazolam, 37° C. 30 minutes
Procedure: (§1) In order to investigate whether or not a human-specific metabolite of midazolam, which is known to be metabolized by CYP3A/Cyp3a, is observed in the TC (CYP3A-HACΔ)/Δcyp mouse as in the case of a human, microsomes derived from the liver of the TC(CYP3A-HACΔ)/Δcyp mouse, the Δcyp mouse, the B6 normal mouse, and the human were allowed to react with midazolam, and mass analysis was carried out via LC-MS/MS in the following manner. […] The reaction was terminated with the addition of acetonitrile, the mixture was centrifuged at 3,000 rpm for 5 minutes, and the supernatant was separated. The solvent was removed therefrom by distillation under a nitrogen stream at 40° C., the dried extract was redissolved in acetonitrile, and mass analysis was carried out by LC-MS/MS

[4] = system: CYP3A/Cyp3a; assay: Midazolam metabolites in mouse liver microsomes by LC-MS/MS; conditions: 10 μM midazolam
Procedure: as §1

| SMILES | CYP3A expression level compared with corn oil mice of the same strain ([1]; B6 normal mice, 100 mg/kg intraperitoneally for 4 days, liver on day 5) | CYP3A expression ([1]; mouse, in vivo, ip, 100 mg/kg) | CYP3A expression level compared with corn oil mice of the same strain ([1]; mouse, in vivo, ip, 100 mg/kg) | metabolic activity (triazolam hydroxylation) of liver microsomes, PCN-administered versus corn oil-administered mice [2] | human-specific metabolite (10.22) [3] | human-specific metabolite (10.22) ([4]; TC(CYP3A-HACΔ)/Δcyp mouse liver microsomes, 37° C. 30 minutes) | main metabolite (10.62) ([4]; all microsomes (TC(CYP3A-HACΔ)/Δcyp, Δcyp, B6 normal mouse, human)) |
| --- | --- | --- | --- | --- | --- | --- | --- |
| CC(=O)[C@H]1[C@H](C#N)C[C@H]2[C@@H]3CC=C4C[C@@H](O)CC[C@]4(C)[C@H]3CC[C@@]21C [PCN, pregnenolone 16α-carbonitrile] | elevated | not observed | elevated | 10 times | – | – | – |
| Cc1ncc2n1-c1ccc(Cl)cc1C(c1ccccc1F)=NC2 [midazolam] | – | – | – | – | detected | detected | detected in all microsomes |
